Consider two molecules from US20240294478A1, “ANTI-CANCER COMPOUNDS AND METHODS OF USE” (YALE UNIVERSITY, priority 2021, published 2024).

By IC50 is commonly meant the concentration needed to halve the response being measured.

Common to all, as to format: cell-based, human
Data set [1] has as its system genomic DNA isolated from LN229 MGMT−/MMR+ cells. Briefly: Genomic DNA denaturing gel electrophoresis. The conditions noted are these: KL-50 200 μM. As to the method:
Genomic DNA Denaturing Gel Electrophoresis. Cells were trypsinized, washed with 1×PBS, and stored at −80° C. prior to processing. Genomic DNA was extracted with the DNeasy Blood & Tissue Kit (Qiagen) per kit protocol. A 0.7% agarose gel was prepared in 100 mM NaCl-2 mM EDTA (pH 8) and soaked in 40 mM NaOH-1 mM EDTA running buffer for 2 h. Genomic DNA (400 ng/well) was then loaded in 1×BlueJuice loading buffer (Invitrogen) and subjected to electrophoresis at 2 V/cm for 30 min, followed by 3 V/cm for 2 h. The gel was neutralized in 150 mM NaCl-100 mM Tris (pH 7.4) for 30 min, twice, and then stained with 1×SYBR Gold in 150 mM NaCl-100 mM Tris (pH 7.4) for 90 min. Imaging was performed on a ChemiDoc XRS+ Molecular Imager (Bio-Rad).

The test system of data set [2] is HCT116 MLH1−/− cells. The data set is described as follows: Short-term viability assay, HCT116 MLH1-/- cells +/- O6BG. The conditions noted are these: with or without 10 μM O6BG pre-treatment. The procedure:
FIG. 1B: Short-term viability assay curves for KL-50 in DLD1 MSH6-deficient cells pre-treated with 0.01% DMSO control (CTR) or 10 μM O^6BG (+O^6BG) for 1 h prior to KL-50 addition. […] Short-term viability assay curves for (FIG. 1E) KL-50 in HCT116 MLH1−/−cells or (FIG. 1F) HCT116 cells complemented with chromosome 3 carrying wildtype MLH1 (+Chr3) pre-treated with 0.01% DMSO control or 10 μM O^6BG (+O^6BG) for 1 h prior to KL-50 addition. […] For these figures, points, mean; error bars, SD; n>3 technical replicates.
(§1) Short-term Cell Viability Assay. Cells were seeded in 96-well plates at 1000 or 2000 cells/well and allowed to adhere at 23° C. for 60 min and then incubated overnight at 37° C. Cells were treated with indicated concentrations of compounds in triplicate for 4-6 days prior to fixation with 3.7% paraformaldehyde and nuclear staining with 1 μg/mL Hoechst 33342 dye. Cells were imaged on a Cytation 3 imaging reader (BioTek) and quantified using CellProfiler software. For in vitro short-term growth delay experiments, IC50 values were determined from the nonlinear regression equation, [inhibitor] vs normalized response with variable slope.

The subject of data set [3] is LN229 MGMT− shMSH3 cells. Briefly: Short-term viability assay, LN229 MGMT- shMSH3. The conditions noted are these: for IC50: Homo sapiens, LN-229, Table III, read-out: IC50 against LN229 cell lines, MGMT− MMR−; for MGMT− RI: Table III. As to the method:
The activity of KL-50 in MGMT-LN229 cells engineered to lack expression of other key MMR proteins including MSH6, MLH1, PMS2, and MSH3 was also confirmed. Western blotting was performed in LN229 MGMT+/−cells with stable expression of shRNA targeting MSH6, MLH1, PMS2, or MSH3 to confirm depletion of the shRNA targets. In shMSH6 cells, there was reduced expression of MSH2, and in shMLH1 cells, there was loss of PMS2, due to destabilization in the setting of loss of their heterodimeric partners. GAPDH serves as loading control. […] Short-term viability assay curves for KL-50 in LN229 MGMT+/−, MMR+/shMSH6 cells. […] Short-term viability assay curves for KL-50 in LN229 MGMT+/−, MMR+/shMLH1 cells. […] Short-term viability assay curves for KL-50 in LN229 MGMT+/−, MMR+/shPMS2 cells. […] Short-term viability assay curves for KL-50 in LN229 MGMT+/−, MMR+/shMSH3 cells.
MMR Protein shRNA Knockdown. pGIPZ lentiviral shRNA vectors targeting MSH2, MSH6, MLH1, PMS2, and MSH3 were purchased from Horizon Discovery (Table IV). Lentiviral particles were produced in HEK293T cells via co-transfection with lentiviral shRNA plasmid, pCMV-VSV-G envelope plasmid (Addgene, #8454) and psPAX2 packaging plasmid (Addgene, #12260), using Lipofectamine 3000 Reagent (Invitrogen, L3000001) per manufacturer's protocol. Viral particles were harvested 48 h post-transfection and used to transduce LN229 MGMT+/−cells in the presence of 8 μg/mL polybrene. Selection of pooled cells with lentiviral expression was established with 1 μg/mL puromycin 48 h post-transduction for 3 to 4 days. Single cell cloning was performed by limiting dilution and protein knockdown was confirmed by western blotting.
as §1

Data set [4] relates to ATR-CHK1 and ATM-CHK2 signaling axes in LN229 MGMT+/−, MMR+/− cells. The data set is described as follows: Western blotting of CHK1 and CHK2 phosphorylation. The conditions noted are these: 20 μM, 24 or 48 h. As to the method:
FIGS. 5A-5K: KL-50 activates DNA damage response pathways and cycle arrest in MGMT-cells, independent of MMR, and induces sensitivity in cells deficient in ICL or HR repair. […] Columns, mean; error bars, SD; n 5 technical replicates. FIGS. 5D-5K: KL-50 induces activation of the ATR-CHK1 and ATM-CHK2 signaling axes and delayed DNA repair foci formation in MGMT-deficient cells, independent of MMR status. […] Treatment with 1 μM doxorubicin for 24 h (Doxo) served as a positive control for p-CHK1 activation. […] Points, mean % cells with >10 foci; error bars, SD; n >5 technical replicates. […] Points, % cells with 10 foci, n>250 cells per condition.
A prior finding that the ATR-CHK1 signaling axis is activated in response to TMZ-induced replication stress in MGMT-deficient cells prompted analysis of the phosphorylation status of CHK1 and CHK2 in LN229 MGMT+/− and MMR+/−cells. […] Analysis of foci formation of the DDR factors phospho-SER139-H2AX (yH2AX), p53 binding protein 1 (53BP1), and phospho-SER33-RPA2 (pRPA) over the period of 2 to 48 h (FIGS. 5A-5C and FIGS. 5D-5I). […] However, these foci dissipate at later timepoints (72-96 h; FIGS. 5J-5K), and they are not associated with appreciable cellular toxicity (as shown earlier in FIGS. 2A and 2B).
On the technique in general: Immunoblotting shows a protein as a band on a membrane.

Consider `NC(=O)c1ncn2c(=O)n(CCF)nnc12` [KL-50], for which the “crosslinked genomic DNA (ICL induction)” value in data set [1] is on record as “presence of crosslinked DNA”. Further, the “cytotoxicity in HCT116 MLH1-deficient cells” value in data set [2] is given as “induced selective tumor cell killing specifically in the setting of O^6BG-induced MGMT suppression”. In addition, in data set [3], the concentration for half-maximal inhibition (IC50) amounted to 7.9 ± 0.3 µM and the “MGMT− RI” value is listed as 0.6. For the same molecule, in data set [4], the “CHK1 and CHK2 phosphorylation” value was “induced CHK1 and CHK2 phosphorylation in MGMT-cells regardless of MMR status”.

As to `Cn1nnc2c(C(N)=O)ncn2c1=O` [TMZ, 4-methyl-5-oxo-2,3,4,6,8-pentazabicyclo[4.3.0]nona-2,7,9-triene-9-carboxamide, reference compound], the “crosslinked genomic DNA (ICL induction)” value in data set [1] is “no evidence of ICL induction”. Further, in data set [2], the “cytotoxicity in HCT116 MLH1-deficient cells” value is “inactive”. In data set [3], the 50% inhibitory concentration (IC50) turned out to be 3.1 ± 0.6 µM and the “MGMT− RI” value is listed as 0.6. In data set [4], the “CHK1 and CHK2 phosphorylation” value is “only induced phospho-CHK1 and —CHK2 in MGMT−/MMR+cells”.
